Measured values published in patent publication US9238802B2, “E. coli transformant, method for producing flavin-bound glucose dehydrogenase using the same, and mutant flavin-bound glucose dehydrogenases” (KIKKOMAN CORPORATION, priority 2010, dated 2016).

Experiments:
MpGDH = assay: Inhibitory effects of 1,10-phenanthroline on GDH activity; assay type: biochemical, Mucor prainii NISL0103
Description: (§1) The inhibitory effects of 1,10-phenanthroline on the activities of these flavin-bound GDHs were examined by the following method. According to the enzyme activity assay of Example 1, the enzyme activities when 1,10-phenanthroline was added at final concentrations of 1, 5, 10, 25, and 50 mM were determined to calculate the inhibitory rates relative to 0% of the inhibitory rate when no 1,10-phenanthroline was added.

[1] = test system: flavin-bound GDHs of the invention; assay: Inhibitory effects of 1,10-phenanthroline, summary; assay type: biochemical, Mucor
Description: as §1

MjGDH = assay: Inhibitory effects of 1,10-phenanthroline on GDH activity; assay type: biochemical, Mucor javanicus NISL0111
Description: as §1

McGDH = assay: as above; assay type: biochemical, Mucor circinelloides f. circinelloides NISL0117
Description: as §1

## c1cnc2c(c1)ccc1cccnc12 [1,10-phenanthroline]
MpGDH; 1,10-phenanthroline 1 mM
  GDH inhibition rate: 3.72%
MpGDH; 1,10-phenanthroline 5 mM
  GDH inhibition rate: 10.1%
MpGDH; 1,10-phenanthroline 10 mM
  GDH inhibition rate: 23.9%
MpGDH; 1,10-phenanthroline 25 mM
  GDH inhibition rate: 44.1%
MpGDH; 1,10-phenanthroline 50 mM
  GDH inhibition rate: 68.6%
[1]; 1,10-phenanthroline 1 mM
  inhibitory effects: 2-4%
[1]; 1,10-phenanthroline 5 mM
  inhibitory effects: about 10%
MjGDH; 1,10-phenanthroline 1 mM
  GDH inhibition rate: 3.27%
MjGDH; 1,10-phenanthroline 5 mM
  GDH inhibition rate: 13.1%
MjGDH; 1,10-phenanthroline 10 mM
  GDH inhibition rate: 23.5%
MjGDH; 1,10-phenanthroline 25 mM
  GDH inhibition rate: 64.7%
MjGDH; 1,10-phenanthroline 50 mM
  GDH inhibition rate: 88.9%
McGDH; 1,10-phenanthroline 1 mM
  GDH inhibition rate: 1.95%
McGDH; 1,10-phenanthroline 5 mM
  GDH inhibition rate: 8.23%
McGDH; 1,10-phenanthroline 10 mM
  GDH inhibition rate: 12.8%
McGDH; 1,10-phenanthroline 25 mM
  GDH inhibition rate: 36.2%
McGDH; 1,10-phenanthroline 50 mM
  GDH inhibition rate: 68.5%
